# Measurements published in US20260083865A1, “PROSTATE SPECIFIC MEMBRANE ANTIGEN (PSMA) LIGANDS AND USE THEREOF” (priority 2022, published 2026).
# Read-outs that look alike come from different tables or passages of the source. Numbered stars: 1 amine (or outer) side, 2 acyl side, 3 side chain; on linkers, the order of the positions; unused ones are H or OH. Bridge positions count the residues as written; N and C are the ends. Square brackets hold non-standard residues; d marks the D form. Peptide text beside a SMILES is read from it. * marks the point of attachment. ξ: configuration not given here. X19 = NC(=O)[C@H](CCCCNC(=O)CCCC[C@@H]1SC[C@@H]2NC(=O)N[C@@H]21)NC(=O)CCC(=O)NCCCOCCOCCOCCCNC(=O)CCC(=O)NCCCOCCOCCOCCCNC(=O)CCC(=O)NCCCOCCOCCOCCCN*; DOTA = O=C(O)CN1CCN(CC(=O)O)CCN(CC(=O)*)CCN(CC(=O)O)CC1; Trp(5-Br) = N[C@@H](Cc1c[nH]c2ccc(Br)cc12)C(=O)O; Phe(4-CF3) = N[C@@H](Cc1ccc(C(F)(F)F)cc1)C(=O)O; X20 = CN(CCC[C@H](N[*:1])C(=O)[*:2])C(=N)N; Phe(4-Cl) = N[C@@H](Cc1ccc(Cl)cc1)C(=O)O; X1 = O=C(CC1CCN([*:1])CC1)[*:2]; Cit = NC(=O)NCCC[C@H](N)C(=O)O; Lys(Me) = CNCCCC[C@H](N)C(=O)O; Tle = CC(C)(C)[C@H](N)C(=O)O; Aib = CC(C)(N)C(=O)O; ξM = CSCCC(N)C(=O)O
# What was measured:
# [1] = molecular target: T1, PSMA-expressing C4-2 cells (Homo sapiens, UniProt Q04609); experiment: FACS binding assay (competition with 50 nM PSM-0183); conditions: read-out: pIC50 [C4-2] CAT (converted)
# T1 construct: PSMA-expressing C4-2 cells (ATCC, Cat. No. CRL-3314) were cultured in RPMI-1640; host or cells: C4-2 cells
# T1 sequence (Q04609 whole entry): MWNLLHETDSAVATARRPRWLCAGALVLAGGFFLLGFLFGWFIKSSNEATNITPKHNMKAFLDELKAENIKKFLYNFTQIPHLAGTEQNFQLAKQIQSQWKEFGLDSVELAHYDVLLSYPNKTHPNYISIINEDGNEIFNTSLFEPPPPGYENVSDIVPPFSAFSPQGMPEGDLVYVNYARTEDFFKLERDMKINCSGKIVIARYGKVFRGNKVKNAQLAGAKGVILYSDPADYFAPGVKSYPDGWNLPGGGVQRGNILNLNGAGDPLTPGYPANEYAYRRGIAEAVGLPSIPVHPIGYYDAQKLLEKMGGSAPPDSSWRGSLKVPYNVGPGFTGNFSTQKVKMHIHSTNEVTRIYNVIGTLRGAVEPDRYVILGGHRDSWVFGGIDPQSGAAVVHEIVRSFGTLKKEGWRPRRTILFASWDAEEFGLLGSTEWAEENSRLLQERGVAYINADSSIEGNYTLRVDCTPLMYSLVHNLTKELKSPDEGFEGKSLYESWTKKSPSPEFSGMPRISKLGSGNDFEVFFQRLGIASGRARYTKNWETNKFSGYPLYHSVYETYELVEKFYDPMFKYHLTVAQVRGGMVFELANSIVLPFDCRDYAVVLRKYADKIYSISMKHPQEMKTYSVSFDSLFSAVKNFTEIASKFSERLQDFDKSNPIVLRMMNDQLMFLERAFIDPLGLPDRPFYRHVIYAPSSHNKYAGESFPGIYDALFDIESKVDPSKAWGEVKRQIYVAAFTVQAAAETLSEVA
# Procedure: In order to determine binding of compounds according to the present invention to PSMA-expressing cells, a FACS binding assay was established.
# PSMA-expressing C4-2 cells (ATCC, Cat. No. CRL-3314) were cultured in RPMI-1640 (Pan Biotech, Cat. No. P04-18050) including 10% fetal calf serum (Biochrom) and 100 U/ml penicillin and 100 μg/mL streptomycin (Sigma, Cat. No. P0781). Cells were detached with Accutase (Biolegend, Cat. No. BLD-423201) and washed in FACS buffer (PBS (Sigma, Cat. No. D8537) including 1% fetal calf serum). Cells were diluted in FACS buffer to a final concentration of 500,000 cells per mL. 200 μL of the cell suspension were transferred to a u-shaped non-binding 96-well plate (Greiner Bio-One, Cat. No. 650901) and cells were washed in ice-cold FACS buffer.
# For IC50 determination, C4-2 cells were incubated with 50 nM PSM-0183 (Ac-Thr-Aib-Phe[Cys-Lys-Arg-Aib-Asn-Cys]-Tle-Thr-Asp-Ttds-Ttds-AF488N3K-NH2) in the presence of increasing concentrations of test compounds at 4° C. for 1 hour. After two wash steps with ice-cold FACS buffer, cells were analyzed in an Attune NxT flow cytometer. Median fluorescence intensities (MFI) of the FITC/AF488-channel were calculated by Attune NxT software. MFI values were plotted against peptide concentration and four parameter logistic (4PL) curve fitting and IC50/pIC50 calculations were performed using ActivityBase software (IDBS).
# [2] = molecular target: T2, Fc-fusion protein of human PSMA (hPSMA-Fc) (Homo sapiens, UniProt Q04609); experiment: Surface plasmon resonance assay (Biacore T200, single cycle kinetic); type: binding; conditions: hPSMA-Fc, 25° C., read-out: pKD CAT (converted)
# T2 construct: purchased Acro Biosystems PSA-H5264
# T2 sequence (Q04609 44-750 limits assumed): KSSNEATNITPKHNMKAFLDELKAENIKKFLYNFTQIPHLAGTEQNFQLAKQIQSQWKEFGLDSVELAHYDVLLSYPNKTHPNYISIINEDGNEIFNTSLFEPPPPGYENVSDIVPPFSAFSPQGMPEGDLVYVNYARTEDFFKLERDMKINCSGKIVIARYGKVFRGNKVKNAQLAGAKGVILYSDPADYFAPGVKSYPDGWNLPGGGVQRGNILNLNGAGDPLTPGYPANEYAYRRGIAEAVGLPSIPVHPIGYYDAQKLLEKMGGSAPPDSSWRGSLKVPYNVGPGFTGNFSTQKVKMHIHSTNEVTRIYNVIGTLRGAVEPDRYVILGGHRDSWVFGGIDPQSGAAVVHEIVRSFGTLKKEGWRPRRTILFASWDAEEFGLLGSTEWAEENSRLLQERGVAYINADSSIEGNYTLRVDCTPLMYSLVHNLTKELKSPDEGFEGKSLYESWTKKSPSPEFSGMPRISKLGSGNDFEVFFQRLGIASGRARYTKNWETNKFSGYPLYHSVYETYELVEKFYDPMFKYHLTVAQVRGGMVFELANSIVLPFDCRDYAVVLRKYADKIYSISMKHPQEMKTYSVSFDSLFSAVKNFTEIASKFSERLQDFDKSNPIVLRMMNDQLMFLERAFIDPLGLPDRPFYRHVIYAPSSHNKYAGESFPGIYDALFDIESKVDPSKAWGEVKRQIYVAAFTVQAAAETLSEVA
# Procedure: Surface plasmon resonance (SPR) studies were performed using a Biacore™ T200 SPR system. Briefly, polarized light is directed towards a gold-labeled sensor surface, and minimum intensity reflected light is detected. The angle of reflected light changes as molecules bind and dissociate.
# Fc-fusion protein of human PSMA (hPSMA-Fc, Acro Biosystems, Cat #PSA-H5264) was captured on a Fc-capture chip (Biacore™ CM5 sensor chip coated with ˜300 RU of an Fc-binding peptide). hPSMA-Fc was diluted in Running Buffer (HBST, 0.1% DMSO) to a final concentration of 100 nM and then flushed over the Fc-capture chip to immobilized ˜1000 RUs.
# Stock solutions of test compounds were prepared by dissolving each compound in DMSO. DMSO stock solution were diluted 1:1000 in Running Buffer without DMSO. Further sequential dilutions were made with Running Buffer containing 0.1% DMSO. SPR binding analyses were performed in Single Cycle Kinetic (SCK) mode at 25° C. Flow cell coated with the Fc-binding peptide only served as reference flowcell. After each SCK run, hPSMA-Fc was removed with 10 mM glycine buffer, pH 1.5.
# In between every three SCK measurements, a blank run with Running Buffer instead of test compound was included to correct for baseline drifts (double blanking method).
# Table 5 describes the protocol steps for Fc-fusion target capturing and assessment of the binding kinetics.
# For each test compound, SPR raw data in the form of resonance units (RU) were plotted as sensorgrams using the Biacore™ T200 control software. The signal from the blank sensorgram was subtracted from that of the test compound sensorgram (blank corrected). The blank corrected sensorgram was corrected for baseline drift by subtracting the sensorgram of a SCK run without the test compound (running buffer only). The dissociation constant (KD) was calculated from Blank-normalized SPR data using the 1:1 Langmuir binding model from the Biacore™ Insight Evaluation software. The pKD value (negative decadic logarithm of dissociation constant) was calculated using Microsoft Excel.
# [3] = pIC50 category of FACS binding, C4-2 cells
# [4] = pKD category for PSMA SPR activity assay
"IC50 [1, 3] [nM]","Kd [2, 4] [nM]",Structure (SMILES),other results
< 200,< 12.6,"CC(=O)N[C@H](C(=O)NC(C)(C)C(=O)N[C@@H](Cc1ccc(C(F)(F)F)cc1)C(=O)N[C@H]1CSSC[C@@H](C(=O)N[C@H](C(=O)N[C@H](C(N)=O)[C@@H](C)O)C(C)(C)C)NC(=O)[C@H](CC(N)=O)NC(=O)C(C)(C)NC(=O)[C@H](CCCNC(=N)N)NC(=O)[C@H](CCCCN)NC1=O)[C@@H](C)O [PSM-0550, Ac-Thr-Aib-Ptf-[Cys-Lys-Arg-Aib-Asn-Cys]-Tle-Thr-NH2] (Ac-T[Aib][Phe(4-CF3)]CKR[Aib]NC[Tle]T-NH2; disulfide 4-9)",–
< 200,< 12.6,"CC(=O)N[C@H](C(=O)NC(C)(C)C(=O)N[C@@H](Cc1ccccc1)C(=O)N[C@H]1CSSC[C@@H](C(=O)N[C@H](C(=O)NCC(N)=O)C(C)(C)C)NC(=O)[C@H](CC(N)=O)NC(=O)C(C)(C)NC(=O)[C@H](CCCNC(=N)N)NC(=O)[C@H](CCCCN)NC1=O)[C@@H](C)O [PSM-0477, Ac-Thr-Aib-Phe-[Cys-Lys-Arg-Aib-Asn-Cys]-Tle-Gly-NH2] (Ac-T[Aib]FCKR[Aib]NC[Tle]G-NH2; disulfide 4-9)",–
–,–,"C[C@@H](O)[C@H](NC(=O)[C@@H](NC(=O)[C@@H]1CSSC[C@H](NC(=O)[C@H](Cc2c[nH]c3ccc(Br)cc23)NC(=O)C(C)(C)NC(=O)[C@@H](NC(=O)CC2CCN(C(=O)CN3CCN(CC(=O)O)CCN(CC(=O)O)CCN(CC(=O)O)CC3)CC2)[C@@H](C)O)C(=O)N[C@@H](CCCCN)C(=O)N[C@@H](CCCNC(N)=O)C(=O)NC(C)(C)C(=O)N[C@@H](CC(N)=O)C(=O)N1)C(C)(C)C)C(N)=O [PSM-0359, DOTA-Cmp-Thr-Aib-5Brw-[Cys-Lys-Cit-Aib-Asn-Cys]-Tle-Thr-NH2] ({DOTA}-[X1]T[Aib][Trp(5-Br)]CK[Cit][Aib]NC[Tle]T-NH2; disulfide 5-10)","IC50 ([1]; FACS binding, PSMA-expressing C4-2 cells, pIC50 category): > 3160 nM; Kd ([2]; PSMA SPR assay, pKD category): > 501 nM"
–,–,"CNCCCC[C@@H]1NC(=O)[C@@H](NC(=O)[C@H](Cc2ccc(Cl)cc2)NC(=O)C(C)(C)NC(=O)[C@@H](NC(=O)CC2CCN(C(=O)CN3CCN(CC(=O)O)CCN(CC(=O)O)CCN(CC(=O)O)CC3)CC2)[C@@H](C)O)CSSC[C@@H](C(=O)N[C@H](C(=O)N[C@H](C(N)=O)[C@@H](C)O)C(C)(C)C)NC(=O)[C@H](CC(N)=O)NC(=O)C(C)(C)NC(=O)[C@H](CCCN(C)C(=N)N)NC1=O [PSM-0592, DOTA-Cmp-Thr-Aib-Pcf-[Cys-Lys(Me)-RMe1-Aib-Asn-Cys]-Tle-Thr-NH2] ({DOTA}-[X1]T[Aib][Phe(4-Cl)]C[Lys(Me)][X20][Aib]NC[Tle]T-NH2; disulfide 5-10)","IC50 ([1]; FACS binding, C4-2 cells, category): < 200 nM"
–,–,"CSCCC(N)C(=O)N[C@H](C(=O)N[C@@H](C)C(=O)N[C@@H](Cc1ccccc1)C(=O)N[C@H]1CSSC[C@@H](C(=O)N[C@@H](CC(C)C)C(=O)N[C@H](C(=O)N[C@@H](CC(=O)O)C(=O)NCC(=O)N[C@@H](CO)C(=O)NCCCOCCOCCOCCCNC(=O)CCC(=O)NCCCOCCOCCOCCCNC(=O)CCC(=O)NCCCOCCOCCOCCCNC(=O)CCC(=O)N[C@@H](CCCCNC(=O)CCCC[C@@H]2SC[C@@H]3NC(=O)N[C@@H]32)C(N)=O)[C@@H](C)O)NC(=O)[C@H](CC(N)=O)NC(=O)[C@H](C)NC(=O)[C@H](CCCNC(=N)N)NC(=O)[C@H](CCCCN)NC1=O)[C@@H](C)O (stereo partly drawn) [PSM-0226, H-Met-Thr-Ala-Phe-[Cys-Lys-Arg-Ala-Asn-Cys]-Leu-Thr-Asp-Gly-Ser-Ttds-Ttds-Ttds-Lys(Bio)-NH2] (H-[ξM]TAFCKRANCLTDGS-X19; disulfide 5-10)","IC50 ([1]; FACS binding, C4-2 cells, competition with 50 nM PSM-0183, category): 200 to 1260 nM"
